According to patent US20240262842A1, “SMALL MOLECULE INHIBITORS OF KRAS G12C MUTANT” (Merck Sharp & Dohme LLC, priority 2021, published 2024):
Like-named read-outs stand apart in the source and are kept apart here.

Experiments:
MIA PaCa-2 cells = experiment: Growth inhibition activity on KRAS-G12C mutant cell line (CellTiter-Glo 3D); assay type: cell-based, human; settings: MIA PaCa-2, 3-day culture with compound
How it was run: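 MIA PaCa-2 cells in RPMI1640 with 10% FBS, U-bottom wells, cultured 1 day before compound (0.2% DMSO final), then 3 days at 37 °C, 5% CO2. Viability by CellTiter-Glo 3D luminescence; growth inhibition versus untreated wells gives IC50 (nM).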

[1] = target: T1, interaction between GMPPNP-bound recombinant K-Ras4B G12C mutant protein and cRAF RAS-binding domain (cRAF-RBD) (Homo sapiens, UniProt P01116, G12C); experiment: Inhibitory activity on interaction between KRAS G12C and cRAF (Alpha technology)
T1 construct: His-tag (N)
How it was run: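 His-tagged K-Ras4B G12C (aa 1-169), GMPPNP-loaded, preincubated with compound 1 h at 25° C in pH 7.5 Tris buffer with MgCl2, TCEP, Tween 20. cRAF-RBD (aa 50-132) and Alpha reagents then added for 1.5 h; Alpha signal normalised to DMSO (0%) and GDP-bound KRAS (100%); IC50 from dose titration.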

[2] = Homo sapiens, MIA PaCa-2, 72 h, Table 3
[3] = IC50, GMPPNP-bound KRAS G12C incubated with compound 25° C. 1 hour, Table 2
[4] = Homo sapiens, MIA PaCa-2, 72 h, Table 3-1
[5] = IC50, GMPPNP-bound KRAS G12C incubated with compound 25° C. 1 hour, Table 2-1
[6] = GMPPNP-bound KRAS G12C incubated with compound 25° C. 1 hour, Table 2-1, read-out: IC50
[7] = GMPPNP-bound KRAS G12C incubated with compound 25° C. 1 hour, Table 2, read-out: IC50

T1 sequence (P01116 with tags, fused parts or gaps isoform P01116-2 G12C): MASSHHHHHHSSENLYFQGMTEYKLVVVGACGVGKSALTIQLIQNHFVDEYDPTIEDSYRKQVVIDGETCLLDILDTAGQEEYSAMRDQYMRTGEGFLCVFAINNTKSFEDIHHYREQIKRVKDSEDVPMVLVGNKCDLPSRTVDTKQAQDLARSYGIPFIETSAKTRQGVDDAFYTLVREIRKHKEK

| SMILES | IC50 (MIA PaCa-2 cells; [4]) [nM] | IC50 [1, 6] [nM] | also measured |
| --- | --- | --- | --- |
| CO[C@H]1CC[C@H](NC/C=C/C(=O)Nc2c(F)cc(C(=O)c3cn4c5c(cccc35)-c3c(ccc(C#N)c3Cl)OCC4)cc2F)CC1 [Example 9, (E)-N-(4-(10-chloro-9-cyano-4,5-dihydrobenzo[7,8][1:4]oxazocino[6,5,4-hi]indole-1-9 carbonyl)-2,6-difluorophenyl)-4-(((1,4r)-4-methoxycyclohexyl)amino)but-2-enamide] | – | – | IC50 (MIA PaCa-2 cells; [2]): 760 nM; IC50 [1, 3]: 1500 nM |
| Cc1cc2c(nc(C)n2C)c2c1-c1cccc3c(C(=O)c4cc(F)c(NC(=O)/C=C/CN5[C@@H]6CC[C@H]5[C@@H](O)C6)c(F)c4)cn(c13)CCN2C (racemic) [Example 142] | 85.5 | – | IC50 [1, 5]: 28.1 nM |
| Cc1nc2c3c(c(C(F)(F)F)cc2n1C)-c1cccn2c(C(=O)c4cc(F)c(NC(=O)C=CCNC5CCOC5)c(F)c4)nc(c12)CCN3C [Example 148, (S,E)-N-(2,6-difluoro-4-(8,9,11-trimethyl-6-(trifluoromethyl)-8,11,12,13-tetrahydro-1,2a,8,10,11-pentaazacycloocta[1,2,3-cd:5,4-e′]diindene-2-carbonyl)phenyl)-4-((tetrahydrofuran-3-yl)amino)but-2-enamide] | 19.1 | 23.2 | – |
| CN1CCn2cc(C(=O)c3cc(F)c(NC(=O)/C=C/CNC(C)(C)CF)c(F)c3)c3cccc(c32)-c2c(C(F)(F)F)cc3c(ncn3C)c21 [Example 81, (E)-N-(4-(8,11-dimethyl-6-(trifluoromethyl)-8,11,12,13-tetrahydro-imidazo[4″,5″:5′,6′]benzo-[1′,2′:5,6][1,4]diazocino-[7,8,1-hi]indole-2-carbon-yl)-2,6-difluorophenyl)-4-((1-fluoro-2-methyl-propan-2-yl)amino)but-2-enamide] | 33.4 | – | IC50 [1, 5]: 20.8 nM |
| Cn1cnc2c3c(c(C(F)(F)F)cc21)-c1cccn2c(C(=O)c4cc(F)c(NC(=O)/C=C/CN5CC[C@H]5CO)c(F)c4)cc(c12)CCO3 [Example 165, (S,E)-N-(2,6-difluoro-4-(9-methyl-7-(trifluoro-methyl)-13,14-dihydro-9H-imidazo[4″,5″:5′,6′]-benzo[1′,2′:2,3]oxocino-[4,5,6-hi]indolizine-2-carbonyl)phenyl)-4-(2-(hydroxymethyl)azetidin-1-yl)but-2-enamide] | 5.44 | 3.75 | – |
| Cc1cc2c(ncn2C)c2c1-c1cccn3c(C(=O)c4cc(F)c(NC(=O)/C=C/CN[C@H]5CCOC5)c(F)c4)cc(c13)CCN2C (single isomer, unassigned) [Example 117] | 55.3 | 20.5 | – |
| Cn1cnc2c3c(c(C(F)(F)F)cc21)-c1cccn2c(C(=O)c4cc(F)c(NC(=O)/C=C/CN[C@@H]5[C@@H]6COC[C@@H]65)c(F)c4)cc(c12)CCO3 [Example 156, (E)-4-(((1R,5S,6s)-3-oxabicyclo[3.1.0]hexan-6-yl)amino)-N-(2,6-difluoro-4-(9-methyl-7-(trifluoromethyl)-13,14-dihydro-9H-imidazo-[4″,5″:5′,6′]benzo[1′,2′: 2,3]oxocino[4,5,6-hi]-indolizine-2-carbonyl)-phenyl)but-2-enamide] | 10.3 | 8.06 | – |
| COCc1nc2c3c(c(OC)cc2n1C)-c1cccn2c(C(=O)c4cc(F)c(NC(=O)/C=C/CN5CCCC5)c(F)c4)cc(c12)CCN3C (single isomer, unassigned) [Example 188, (E)-N-(2,6-difluoro-4-(7-methoxy-10-(methoxy-methyl)-9,12-dimethyl-9,12,13,14-tetrahydro-imidazo[4″,5″:5′,6′]benzo-[1,2:2,3]azocino[4,5,6-hi]indolizine-2-carbonyl)-phenyl)-4-(pyrrolidin-1-yl)but-2-enamide] | 39.7 | 72.5 | – |
| COCCn1c(C)nc2c3c(c(OC)cc21)-c1cccn2c(C(=O)c4cc(F)c(NC(=O)/C=C/CNC5(C)CC5)c(F)c4)cc(c12)CC[S+]3[O-] (stereo not shown) [Example 241] | 877 | 31 | – |
| Cn1cnc2c3c(c(C(F)(F)F)cc21)-c1cccn2c(C(=O)c4cc(F)c(NC(=O)/C=C/CN5[C@@H]6CC[C@H]5[C@@H](O)C6)c(F)c4)cc(c12)CCO3 (racemic) [Example 172] | 16.2 | 10.4 | – |
| COCc1nc2c3c(c(C(F)(F)F)cc2n1C)-c1cccn2c(C(=O)c4cc(F)c(NC(=O)/C=C/CN[C@H]5CCOC5)c(F)c4)nc(c12)CCN3C (single isomer, unassigned) [Example 184] | 28.1 | 48.3 | – |
| Cc1nc2c3c(c(C(F)(F)F)cc2n1C)-c1cccn2c(C(=O)c4cc(F)c(NC(=O)/C=C/CNC(C)(C)C)c(F)c4)cc(c12)CCO3 [Example 33] | – | – | IC50 (MIA PaCa-2 cells; [2]): 5 nM; IC50 [1, 7]: 14 nM |
| Cn1cnc2c3c(c(C(F)(F)F)cc21)-c1cccn2c(C(=O)c4cc(F)c(NC(=O)/C=C/CN5C6CCCC5COC6)c(F)c4)cc(c12)CCO3 [Example 221, (E)-4-(3-oxa-9-azabicyclo-[3.3.1]nonan-9-yl)-N-(2,6-difluoro-4-(9-methyl-7-(trifluoromethyl)-13,14-dihydro-9H-imidazo[4″,5″: 5′,6′]benzo[1′,2′:2,3]oxo-cino[4,5,6-hi]indolizine-2-carbonyl)phenyl)but-2-enamide] | 20.9 | 39.2 | – |
| CO[C@H]1CC[C@H](NC/C=C/C(=O)Nc2c(F)cc(C(=O)c3cn4c5c(cccc35)-c3c(C(F)(F)F)ccc(=O)n3CCC4)cc2F)CC1 [Example 49, (E)-N-(2,6-difluoro-4-(8-oxo-11-(trifluoromethyl)-5,6-dihydro-4H,8H-pyrido[2′,1′:4,5][1,5]diazocino[3,2,1-hi]indole-1-carbonyl)phenyl-4-((1r,4r)-4-methoxycyclohexyl)amino)but-2-enamide] | – | – | IC50 (MIA PaCa-2 cells; [2]): 150 nM; IC50 [1, 3]: 260 nM |
| CO[C@H]1CC[C@H](NC/C=C/C(=O)Nc2c(F)cc(C(=O)c3cn4c5c(cccc35)-c3c(C)cc5c(nc(C)n5C)c3N(C)C(=O)C4)cc2F)CC1 [Example 47, (E)-N-(2,6-difluoro-4-(6,8,9,11-tetramethyl-12-oxo-8,11,12,13-tetrahydroimidazo[4″,5″:5′,6′]benzo[1′,2′:5,6][1,4]diazocino[7,8,1-hi]indole-2-carbonyl)phenyl)-4-(((1r,4r)-4-methoxycyclohexyl)amino)but-2-enamide] | – | – | IC50 (MIA PaCa-2 cells; [2]): 59 nM; IC50 [1, 3]: 23 nM |
| Cc1nc2c3c(c(C(F)(F)F)cc2n1C)-c1cccn2c(C(=O)c4cc(F)c(NC(=O)/C=C/CNC5(C)COC5)c(F)c4)cc(c12)CCO3 (single isomer, unassigned) [Example 31-2, (E)-N-(4-(9,10-dimethyl-7-(trifluoromethyl)-13,14-dihydro-9H-imidazo[4″,5″:5′,6′]benzo[1′,2′:2,3]oxocino[4,5,6-hi]indolizine-2-carbonyl)-2,6-difluorophenyl)-4-((3-methyloxetan-3-yl)amino)but-2-enamide] | – | – | IC50 (MIA PaCa-2 cells; Table 3): 9200 nM; IC50 [1, 7]: > 6700 nM |
| Cc1nnc2c3c(c(C(F)(F)F)cn12)-c1cccn2c(C(=O)c4cc(F)c(NC(=O)/C=C/CNC5(C)CC5)c(F)c4)cc(c12)CCN3C (single isomer, unassigned) [Example 223, (E)-N-(4-(10,13-dimethyl-7-(trifluoromethyl)-14,15-dihydro-13H-[1,2,4]-triazolo[4″,3″:1′,2′]-pyrido[3′,4′:2,3]azocino-[4,5,6-hi]indolizine-2-carbonyl)-2,6-difluoro-phenyl)-4-((1-methyl-cyclopropyl)amino)but-2-enamide] | 23.7 | 20.1 | – |
| COc1cc2c(nc(C)n2C)c2c1-c1cccn3c(C(=O)c4cc(F)c(NC(=O)/C=C/CNC5(C)CC5)c(F)c4)cc(c13)CCS2 [Example 225, (E)-N-(2,6-difluoro-4-(7-methoxy-9,10-dimethyl-13,14-dihydro-9H-imidazo[4″,5″:5′,6′]benzo-[1′,2′:2,3]thiocino[4,5,6-hi]indolizine-2-carbonyl)-phenyl)-4-((1-methyl-cyclopropyl)amino)but-2-enamide] | 7.18 | 10.1 | – |
| Cn1cnc2c3c(c(C(F)(F)F)cc21)-c1cccn2c(C(=O)c4cc(F)c(NC(=O)/C=C/CN5C[C@H]6C[C@@H]5CO6)c(F)c4)cc(c12)CCO3 [Example 190, (E)-4-((1R,4R)-2-oxa-5-azabicyclo[2.2.1]heptan-5-yl)-N-(2,6-difluoro-4-(9-methyl-7-(trifluoro-methyl)-13,14-dihydro-9H-imidazo[4″,5″:5′,6′]-benzo[1′,2′:2,3]oxocino-[4,5,6-hi]indolizine-2-carbonyl)phenyl)but-2-enamide] | 9.08 | 10.3 | – |
| CO[C@H]1CC[C@H](NC/C=C/C(=O)Nc2c(F)cc(C(=O)c3cn4c5c(cccc35)-c3c(cc(N5CCCC5=O)cc3C(F)(F)F)OCC4)cc2F)CC1 (single isomer, unassigned) [Example 5-1, (E)-N-(2,6-difluoro-4-(8-(2-oxopyrrolidin-1-yl)-10-(trifluoromethyl)-4,5-dihydrobenzo[7,8][1.4]oxazocino[6,5,4-hi]indole-1-carbonyl)phenyl)-4-(((1r,4t)-4-methoxycyclohexyl)amino)but-2-enamide] | – | – | IC50 (MIA PaCa-2 cells; Table 3): 14 nM; IC50 [1, 3]: 53 nM |
